Data from patent publication US12064433B2 (ARCUS BIOSCIENCES, INC., priority 2018, dated 2024).

How the values were obtained:
[1] = target: T1, Human A2BR (Homo sapiens, UniProt P29275); assay: Human 2B Adenosine Receptor CHO-K1 cAMP antagonist functional assay; assay type: cell-based; conditions: cAMP antagonist functional assay vs NECA, CHO-K1 cells stably expressing Human A2BR; read-out: A2B (Potency: A2BR KB)
T1 sequence (P29275 1-332): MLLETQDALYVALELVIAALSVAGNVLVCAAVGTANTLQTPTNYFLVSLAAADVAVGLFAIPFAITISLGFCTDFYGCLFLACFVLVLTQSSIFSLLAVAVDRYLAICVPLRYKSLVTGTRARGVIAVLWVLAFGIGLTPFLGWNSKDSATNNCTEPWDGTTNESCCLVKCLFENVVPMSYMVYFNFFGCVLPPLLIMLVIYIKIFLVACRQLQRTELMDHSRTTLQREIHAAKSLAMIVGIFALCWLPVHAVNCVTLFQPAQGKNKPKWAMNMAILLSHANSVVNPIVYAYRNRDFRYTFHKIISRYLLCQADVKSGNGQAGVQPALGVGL
Procedure: Measurement of the Adenosine Receptor Activity of Compounds Using a Human 2B Adenosine Receptor CHO-K1 cAMP Functional Assay
CHO-K1 cells stably expressing Human Adenosine 2B Receptor (A2BR: Cat. No. M000329, GenScript) were purchased from GenScript Inc., Piscataway, NJ 08854, USA.
The cAMP antagonist functional assay (Perkin Elmer) was performed on CHO-K1 cells stably expressing Human A2BR. 1×10^6 cells were seeded in T75 flasks and cultured at 37° C. and 5% CO2 overnight. 2,000-4,000 cells/well of stably-expressed A2bR CHO-K1 cells were then seeded to a white 384-well Opti plate followed by compound 1 incubation at various concentrations (ranging from 1 μM to 0 μM) at 37° C. for 1 hour.
(§1) A 1:2 serial dilution of NECA (Sigma Aldrich) from 1 μM to 0 μM was added to the cell stimulation mixture and incubated for 30 min at 37° C. After 30 min incubation, 5 μL of Ulight-anti-cAMP (1:150 dilution with conjugate and lysis buffer provided by Perkin Elmer) and 5 μL of Eu-cAMP tracer (1:50 dilution with conjugate and lysis buffer provided by Perkin Elmer) was added the cells and incubated for an hour. FRET signal was detected with an Envision multilabel plate reader (Perkin Elmer) loaded with 615 nm […] filters and 665 nm emission filters.
(§2) Data analysis was performed using on GraphPad Prism (version 7.02) to determine the KB of the test compounds.

[2] = target: T2, Human A2AR (Homo sapiens, UniProt P29274); assay: Human 2A Adenosine Receptor (A2aR) CHO-TREx cAMP antagonist functional assay; assay type: cell-based; conditions: cAMP antagonist functional assay vs NECA, CHO-T-REx cells induced to express Human A2AR; read-out: A2A (Potency: A2AR KB)
T2 construct: expressed in transfected cells; host or cells: CHO-T-REx cells, tetracycline-inducible expression
Procedure: Measurement of the Adenosine Receptor Activity of Compounds Using a Human 2A Adenosine Receptor (A2aR) CHO-TREx cAMP Functional Assay
The cAMP antagonist functional assay (Perkin Elmer) was performed on CHO-T-REx cells induced to express Human A2AR. Cells were seeded to a white 384-well Opti plate at a density of 1,000 to 2,500 cells per well followed by incubation with various concentrations of compound (ranging from 1 μM to 0 μM) at 37° C. for 1 hour.
as §1, §2

T2 sequence (P29274 whole entry): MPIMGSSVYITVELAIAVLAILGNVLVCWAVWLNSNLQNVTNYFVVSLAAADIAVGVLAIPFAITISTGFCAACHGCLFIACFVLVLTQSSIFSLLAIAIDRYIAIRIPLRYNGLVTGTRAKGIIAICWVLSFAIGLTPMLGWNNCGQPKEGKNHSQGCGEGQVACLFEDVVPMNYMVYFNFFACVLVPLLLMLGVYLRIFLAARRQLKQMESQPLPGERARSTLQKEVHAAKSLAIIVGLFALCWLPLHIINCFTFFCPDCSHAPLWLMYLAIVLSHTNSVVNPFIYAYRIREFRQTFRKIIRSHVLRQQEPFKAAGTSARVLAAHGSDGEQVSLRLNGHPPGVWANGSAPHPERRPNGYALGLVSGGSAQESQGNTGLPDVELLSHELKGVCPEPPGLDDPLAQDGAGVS

Q: How did the Kb [1] turn out when “1-[(S)-Tetrahydro-2H-pyran-3-yl]-3-{[4-(2-amino-8-methoxy-4-quinazolinyl)-1H-1,2,3-triazol-1-yl]methyl}-1H-pyridin-2-one [Example 32]” was run?
A: < 100 nM

Q: What about the Kb [2] of the same compound?
A: < 100 nM

Q: Which results are given for “3-{[4-(2-Amino-8-methoxy-4-quinazolinyl)-1H-1,2,3-triazol-1-yl]methyl}-1-(cyclopropylmethyl)-1H-pyridin-2-one [Example 4]”?
A: Kb [1]: 100 to 1000 nM; Kb [2]: < 100 nM

Q: Which Kb [1] does the source give for `COc1cccc2c(-c3cn(Cc4cccn(CC(C)(C)O)c4=O)nn3)nc(N)nc12` [Example 3] here?
A: < 100 nM

Q: What about the Kb [2] of the same compound?
A: < 100 nM

Q: `Cc1cccc2c(-c3cn(Cc4cccn(C(C)C)c4=O)nn3)nc(N)nc12` [Example 6] was tested. Which Kb [1] did it give?
A: < 100 nM

Q: And the Kb [2]?
A: < 100 nM

Q: What does the source list for `COc1cccc2c(-c3cn(Cc4cccn(C(C)C)c4=O)nn3)cc(N)nc12` [Example 8]?
A: Kb [1]: 100 to 1000 nM; Kb [2]: < 100 nM

Q: What does the source list for `COc1cccc2c(-c3cn(Cc4cccn(CC5CCOCC5)c4=O)nn3)nc(N)nc12` [Example 21]?
A: Kb [1]: < 100 nM; Kb [2]: < 100 nM

Q: With `COC[C@@H](C)n1cccc(Cn2cc(-c3nc(N)nc4c(OC)cccc34)nn2)c1=O` [Example 24] as the compound, how does the Kb [1] read?
A: < 100 nM

Q: What about the Kb [2] of the same compound?
A: < 100 nM

Q: `COC[C@H](C)n1cccc(Cn2cc(-c3nc(N)nc4c(OC)cccc34)nn2)c1=O` [Example 25] was tested. Which Kb [1] did it give?
A: 100 to 1000 nM

Q: What about the Kb [2] of the same compound?
A: < 100 nM

Q: For `COc1cccc2c(-c3cn(Cc4cccn([C@@H](C)C(C)(C)O)c4=O)nn3)nc(N)nc12` [Example 26, 1-[(S)-2-Hydroxy-1,2-dimethylpropyl]-3-{[4-(2-amino-8-methoxy-4-quinazolinyl)-1H-1,2,3-triazol-1-yl]methyl}-1H-pyridin-2-one], which Kb [1] is on record?
A: < 100 nM

Q: And the Kb [2]?
A: < 100 nM

Q: What does the source list for `COc1cccc2c(-c3cn(Cc4cccn([C@H](C)C(C)(C)O)c4=O)nn3)nc(N)nc12` [Example 27, 1-[(R)-2-Hydroxy-1,2-dimethylpropyl]-3-{[4-(2-amino-8-methoxy-4-quinazolinyl)-1H-1,2,3-triazol-1-yl]methyl}-1H-pyridin-2-one]?
A: Kb [1]: 100 to 1000 nM; Kb [2]: < 100 nM

Q: Which results are given for `COc1cccc2c(-c3cn(Cc4cccn([C@H](C)C5CCOCC5)c4=O)nn3)nc(N)nc12` [Example 28]?
A: Kb [1]: < 100 nM; Kb [2]: < 100 nM

Q: With `COc1cccc2c(-c3cn(Cc4cccn([C@@H](C)C5CCOCC5)c4=O)nn3)nc(N)nc12` [Example 29] as the compound, how does the Kb [1] read?
A: < 100 nM

Q: And the Kb [2]?
A: < 100 nM

Q: How did the Kb [1] turn out when `CCn1cccc(Cn2cc(-c3nc(N)nc4c(OC)cccc34)cn2)c1=O` [Example 40, 3-{[4-(2-Amino-8-methoxy-4-quinazolinyl)-1H-pyrazol-1-yl]methyl}-1-ethyl-1H-pyridin-2-one] was run?
A: 100 to 1000 nM

Q: What about the Kb [2] of the same compound?
A: < 100 nM
